# In patent publication US8124793B2, “Derivatives of ethylene methanedisulfonate as cancer chemotherapeutic agents” (priority 2007, dated 2012):
# How the values were obtained:
# Format in all cases: cell-based
# TK-10 = assay: NCI screen, growth of human tumor cells: Renal Cancer TK-10; settings: for % Growth: TK-10, 10^−4 molar
# Outline: (§1)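 Growth of human tumor cells, expressed as percent, was determined in the NCI screen. Test data list the cancer type and the molar concentration applied.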
# KD488 = assay: NCI screen, growth of human tumor cells: Lymphoma KD488
# AS283 = assay: NCI screen, growth of human tumor cells: Lymphoma AS283
# PA682 = assay: NCI screen, growth of human tumor cells: Lymphoma PA682
# SK-MEL-28 = assay: NCI screen, growth of human tumor cells: Melanoma SK-MEL-28
# Outline: as §1
# SN12C = assay: NCI screen, growth of human tumor cells: Renal Cancer SN12C; settings: SN12C, 10^−4 molar
# Outline: as §1
# K562 = assay: NCI screen, growth of human tumor cells: Leukemia K562
# Outline: as §1
# HCT-15 = assay: NCI screen, growth of human tumor cells: Colon Cancer HCT-15; settings: for percent of growth of human tumor cells: HCT-15 (Colon Cancer), 10^−4 molar
# Outline: as §1
# HL-60 (TB) = assay: NCI screen, growth of human tumor cells: Leukemia HL-60 (TB); settings: for % Growth: HL-60(TB)
# Procedure: (§2) In the NCI screening process, each compound was tested and described by a minimum of 60 data points. The test data include, but are not limited to the type of cancer, the molar concentration used in the screen, and the percent growth of the cancer. In some cases, NMR and elemental analysis were used for structural assignment.
# 786-0 = assay: NCI screen, growth of human tumor cells: Renal Cancer 786-0
# Outline: as §1
# RL = assay: NCI screen, growth of human tumor cells: Lymphoma RL
# MDA-MB-231/ATCC = assay: NCI screen, growth of human tumor cells: Breast Cancer MDA-MB-231/ATCC; settings: for percent of growth of human tumor cells: MDA-MB-231/ATCC (Breast Cancer); for % Growth: MDA-MB-231 (ATCC)
# Outline: as §1
# COLO205 = assay: NCI screen, growth of human tumor cells: Colon Cancer COLO205
# Outline: as §1
# UO-31 = assay: NCI screen, growth of human tumor cells: Renal Cancer UO-31; settings: UO-31, 10^−4 molar
# Outline: as §1
# SF-295 = assay: NCI screen, growth of human tumor cells: CNS Cancer SF-295
# Outline: as §1
# SNB-19 = assay: NCI screen, growth of human tumor cells: CNS Cancer SNB-19
# Outline: as §1
# M14 = assay: NCI screen, growth of human tumor cells: Melanoma M14; settings: M14, 10^−4 molar
# Outline: as §1
# DU-145 = assay: NCI screen, growth of human tumor cells: Prostate Cancer DU-145; settings: DV-145, 10^−4 molar
# Outline: as §1
# OVCAR-8 = assay: NCI screen, growth of human tumor cells: Ovarian Cancer OVCAR-8; settings: for percent of growth of human tumor cells: OVCAR-8 (Ovarian Cancer), 10^−4 molar; for % Growth: OVCAR-8, 10^−4 molar
# Outline: as §1
# SU-DAL-7 = assay: NCI screen, growth of human tumor cells: Lymphoma SU-DAL-7
# HS 578T = assay: NCI screen, growth of human tumor cells: Breast Cancer HS 578T; settings: HS 578T (Breast Cancer), 10^−4 molar
# Outline: as §1
# NCI-H522 = assay: NCI screen, growth of human tumor cells: Non-Small Cell Lung NCI-H522
# Outline: as §1
# MDA-N = assay: NCI screen, growth of human tumor cells: Breast Cancer MDA-N; settings: 10^−4 molar
# Outline: as §1
# IGROVI = assay: NCI screen, growth of human tumor cells: Ovarian Cancer IGROVI; settings: IGROVI
# Outline: as §1
# SK-OV-3 = assay: NCI screen, growth of human tumor cells: Ovarian Cancer SK-OV-3; settings: SK-OV-3, 10^−4 molar
# Outline: as §1
# NCI-H322M = assay: NCI screen, growth of human tumor cells: Non-Small Cell Lung NCI-H322M; settings: NCI-H322M, 10^−4 molar
# Outline: as §1
# T-47D = assay: NCI screen, growth of human tumor cells: Breast Cancer T-47D; settings: 10^−4 molar; for percent of growth of human tumor cells: T-47D (Breast Cancer)
# Procedure: as §2
# SW620 = assay: NCI screen, growth of human tumor cells: Colon Cancer SW620
# Outline: as §1
# RXF-393 = assay: NCI screen, growth of human tumor cells: Renal Cancer RXF-393
# Outline: as §1
compound,measurement,setting,value
"Cc1ccc2ccccc2c1CC1S(=O)(=O)OCCOS1(=O)=O [NSC 679043, ethylene 2-methyl-1-naphyl-1,1-ethanedisulfonate]",% Growth,TK-10,−93%
same,% Growth,"KD488; KD488, 10^−4 molar",−45%
same,% Growth,"KD488; KD488, 10^−5 molar",30%
same,% Growth,"KD488; KD488, 10^−6 molar",62%
same,% Growth,"KD488; KD488, 10^−7 molar",54%
same,% Growth,"AS283; AS283, 10^−4 molar",−34%
same,% Growth,"AS283; AS283, 10^−5 molar",37%
same,% Growth,"PA682; PA682, 10^−4 molar",−33%
same,% Growth,"PA682; PA682, 10^−5 molar",45%
same,% Growth,"SK-MEL-28; SK-MEL-28, 10^−4 molar",−78%
same,% Growth,SN12C,−85%
same,% Growth,"K562; K562, 10^−4 molar",−42%
same,% Growth,"K562; K562, 10^−5 molar",48%
same,percent of growth of human tumor cells,HCT-15,−49%
same,% Growth,HL-60 (TB); 10^−4 molar,−49%
same,% Growth,HL-60 (TB); 10^−5 molar,−33%
same,% Growth,"786-0; 786-0, 10^−4 molar",−97%
same,% Growth,RL; 10^−4 molar,−45%
same,% Growth,RL; 10^−5 molar,33%
same,percent of growth of human tumor cells,MDA-MB-231/ATCC; 10^−4 molar,−12%
same,% Growth,"COLO205; COLO205, 10^−4 molar",−98%
same,% Growth,"COLO205; COLO205, 10^−5 molar",−27%
same,% Growth,UO-31,−100%
same,% Growth,"SF-295; SF-295, 10^−4 molar",−88%
same,% Growth,"SNB-19; SNB-19, 10^−4 molar",−95%
same,% Growth,M14,−78%
same,% Growth,DU-145,−100%
same,percent of growth of human tumor cells,OVCAR-8,−53%
same,% Growth,"SU-DAL-7; SU-DAL-7, 10^−4 molar",−44%
same,% Growth,"SU-DAL-7; SU-DAL-7, 10^−5 molar",14%
"CC1=C(CC2S(=O)(=O)OCCOS2(=O)=O)C(=O)c2ccccc2C1=O [NSC 693874, ethylene (3-methyl-1,4-naphtho-2-quinoyl)-1,1-ethanedisulfonate]",% Growth,TK-10,−100%
same,% Growth,"SK-MEL-28; SK-MEL-28, 10^−4 molar",−83%
same,% Growth,SN12C,−100%
same,percent of growth of human tumor cells,HS 578T,−21%
same,percent of growth of human tumor cells,"786-0; 786-0 (Renal Cancer), 10^−4 molar",−16%
same,% Growth,"NCI-H522; NCI-H522, 10^−4 molar",−69%
same,percent of growth of human tumor cells,MDA-N,−59%
same,% Growth,IGROVI; 10^−4 molar,−100%
same,% Growth,IGROVI; 10^−5 molar,52%
same,percent of growth of human tumor cells,MDA-MB-231/ATCC; 10^−4 molar,−22%
same,% Growth,UO-31,−97%
same,% Growth,"SF-295; SF-295, 10^−4 molar",−100%
same,% Growth,"SF-295; SF-295, 10^−5 molar",32%
same,% Growth,"SNB-19; SNB-19, 10^−4 molar",−92%
same,% Growth,DU-145,−94%
same,% Growth,SK-OV-3,−75%
same,% Growth,OVCAR-8,−71%
same,% Growth,NCI-H322M,−100%
CC(=O)C1(CC2=C(C)C(=O)c3ccccc3C2=O)S(=O)(=O)OCCOS1(=O)=O [NSC 701690],percent of growth of human tumor cells,"TK-10; TK-10 (Renal Cancer), 10^−4 molar",−8%
same,% Growth,"SK-MEL-28; SK-MEL-28, 10^−4 molar",−100%
same,% Growth,"SK-MEL-28; SK-MEL-28, 10^−5 molar",58%
same,% Growth,SN12C,−100%
same,% Growth,"K562; K562, 10^−4 molar",−66%
same,% Growth,"HCT-15; HCT-15, 10^−4 molar",−100%
same,% Growth,"786-0; 786-0, 10^−4 molar",−100%
same,% Growth,"786-0; 786-0, 10^−5 molar",36%
same,percent of growth of human tumor cells,T-47D,−54%
same,% Growth,T-47D; T-47D,−54%
same,% Growth,"NCI-H522; NCI-H522, 10^−4 molar",−100%
same,% Growth,"NCI-H522; NCI-H522, 10^−5 molar",35%
same,% Growth,"NCI-H522; NCI-H522, 10^−6 molar",57%
same,% Growth,"NCI-H522; NCI-H522, 10^−7 molar",77%
same,% Growth,"NCI-H522; NCI-H522, 10^−8 molar",67%
same,% Growth,"SW620; SW620, 10^−4 molar",−100%
same,% Growth,"SW620; SW620, 10^−5 molar",23%
same,% Growth,"SW620; SW620, 10^−6 molar",54%
same,% Growth,IGROVI; 10^−4 molar,−100%
same,% Growth,IGROVI; 10^−5 molar,40%
same,% Growth,IGROVI; 10^−6 molar,60%
same,% Growth,MDA-MB-231/ATCC; 10^−4 molar,−41%
same,% Growth,MDA-MB-231/ATCC; 10^−5 molar,39%
same,% Growth,MDA-MB-231/ATCC; 10^−6 molar,56%
same,% Growth,MDA-MB-231/ATCC; 10^−7 molar,58%
same,% Growth,MDA-MB-231/ATCC; 10^−8 molar,45%
same,% Growth,"COLO205; COLO205, 10^−4 molar",−100%
same,% Growth,"COLO205; COLO205, 10^−5 molar",60%
same,% Growth,"COLO205; COLO205, 10^−6 molar",58%
same,% Growth,UO-31,−92%
same,% Growth,"SF-295; SF-295, 10^−4 molar",−100%
same,% Growth,"SNB-19; SNB-19, 10^−4 molar",−47%
same,% Growth,"SNB-19; SNB-19, 10^−5 molar",53%
same,% Growth,M14,−100%
same,% Growth,"RXF-393; RXF-393, 10^−4 molar",−69%
same,% Growth,OVCAR-8,−100%
same,% Growth,NCI-H322M,−100%
CC1(C)OCC(COC(=O)C(=O)C2(Cc3ccc4c(c3)C(=O)c3ccccc3C4=O)S(=O)(=O)OCCOS2(=O)=O)O1 (centres unmarked) [NSC 737276],% Growth,TK-10,−73%
same,percent of growth of human tumor cells,"SK-MEL-28; SK-MEL-28 (Melanoma), 10^−4 molar",−52%
same,% Growth,SN12C,−64%
same,percent of growth of human tumor cells,"K562; K562 (Leukemia), 10^−4 molar",29%
same,percent of growth of human tumor cells,HCT-15,−12%
same,percent of growth of human tumor cells,"HL-60 (TB); HL-60 (TB) (Leukemia), 10^−4 molar",−3%
same,percent of growth of human tumor cells,HS 578T,17%
same,% Growth,"786-0; 786-0, 10^−4 molar",−74%
same,percent of growth of human tumor cells,T-47D,−39%
same,% Growth,"NCI-H522; NCI-H522, 10^−4 molar",−91%
same,% Growth,"SW620; SW620, 10^−4 molar",−74%
same,% Growth,IGROVI; 10^−4 molar,−70%
same,percent of growth of human tumor cells,MDA-MB-231/ATCC; 10^−4 molar,−9%
same,% Growth,"COLO205; COLO205, 10^−4 molar",−96%
same,% Growth,UO-31,−81%
same,percent of growth of human tumor cells,"SF-295; SF-295 (CNS Cancer), 10^−4 molar",−12%
same,percent of growth of human tumor cells,"SNB-19; SNB-19 (CNS Cancer), 10^−4 molar",−59%
same,% Growth,DU-145,−81%
same,percent of growth of human tumor cells,"RXF-393; RXF-393 (Renal Cancer), 10^−4 molar",−54%
same,% Growth,SK-OV-3,−67%
same,percent of growth of human tumor cells,OVCAR-8,5%
same,% Growth,NCI-H322M,−87%
